From US20070077316A1, “Compositions and methods for treating and preventing virus infections” (priority 2005, published 2007)
“And” between values parts separate entries of the source, which are not always exact repeats. Identical values can stand only once. Like-named read-outs stand apart in the source and are kept apart here.

Columns and labels:
[1] = tested on: HRV14-induced vNOX; test: Spectrophotometric vNOX activity assay (NADH oxidation) with HRV-infected MCF-10A cells
[2] = tested on: tNOX-like activity (vNOX); test: NADH oxidase activity at the surface of HRV14-infected MCF-10A cells (tNOX-like activity, 22 min period); format: biochemical, human; conditions: 1 μM, added after 45 min
Protocol: FIG. 11: NADH oxidase activity assayed for 90 min at the surface of MCF-10A human mammary epithelial cells. Capsaicin (1 μM) was added after 45 min and the assay was continued for an additional 45 min. Top Panel: No virus. Bottom Panel: MCF-10A human mammary cells infected with HRV 14. The MCF-10A cells normally lack a drug-inhibited NOX activity (lack tNOX). The normal, capsaicin-resistant constitutive NOX activity with a period length of 24 min is shown by the single downward pointing arrows. The triple arrows are tNOX-like activities with a period length of 22 min and which were inhibited by capsaicin. This activity appeared only in the virus-infected cells (see also FIG. 12). The upward pointing arrows denote a capsaicin-stimulated activity sometimes observed in proliferating endothelial cells present both with and without virus. tNOX-like activities (triple arrows) inhibited by 1 μM capsaicin now dominate the activity pattern.
FIG. 12: As in FIG. 11 except 20 h post-infection with HRV 14. Top Panel: No virus. The control MCF-10A cells normally lack a drug-inhibited NOX activity (lack tNOX). Bottom Panel: MCF-10A cells 20 h post infection with HRV 14. The normal, capsaicin-resistant constitutive NOX activity with a period length of 24 min is shown by the single downward pointing arrows. […]

[3] = tested on: MT-2 cells; test: Toxicity to non-infected MT-2 cells by MTT utilization; format: cell-based, human
Protocol: After 5 days, 20 μl of MTT stock solution (7.5 mg/ml) was added. […] Subsequently, 100 μl of 10% v/v Triton X100 in acidified isopropanol was added, and absorbance was determined at 550 nm with reference at 630 nm. The cytotoxic effect of EGCg was reflected by a decrease of the cell viability of mock infected cells in the presence of EGCg in comparison to mock infected cells without EGCg (OD 492 nm) was lower than the value of mock infected cells without EGCg. The cytotoxicity values are given as negative values. Positive values are recorded for a stimulatory effect on cell viability and/or an increase in cell proliferation. Testing the antiviral potency of various compositions was accomplished as follows. EGCg and EC were from Sigma (St. Louis, Mo.). Stock solutions of 100 mM were prepared in ethanol and serially diluted with water between 10^−3 molar and 10^−9 molar. […] Each experiment was in a fourfold assay.

[4] = tested on: HRV14; test: HRV14-induced CPE in less sensitive (Berlin) HeLa strain, XTT test; format: cell-based, human rhinovirus; conditions: for EC50: read-out: EC50 to prevent a cytopathic effect
Protocol: Inhibition by CapsiVirol-T of the HRV cytopathic effect and effects on cell viability were tested using a HeLa strain which is less sensitive to tNOX inhibitors than certain other HeLa cells (Institute for Infectious Medicine, Berlin, Germany) (FIG. 17). In these studies, both CapsiVirol-T and EGCg, the principal green tea catechin, were tested. […] The test substance-containing medium was removed and the cells were infected with viruses at a multiplicity of infection of 0.1. For controls, virus infections were in the absence of the test substance. Mock infections were in the presence and absence of the test substance. Cell viability was measured in the XTT test directly at the days post infection (d.p.i.) indicated (FIG. 17). […] The cytopathic effect induced by a virus was determined from a decrease of cell viability (=decrease of […] nm in comparison to the mock infected control in the absence of the test substance). […] Cell viability was measured with the XTT test. Virus inoculation in the presence of CapsiVirol-T (without FCS) was for 30 min. […] Cell viability was monitored using the XTT test after 1, 2, and 3 days p.i. A control was at 1.5 h p.i. (in the figure 0 d p.i.) (FIG. 18). High OD values represent living cells, and low OD values represent cell damage. This damage is either induced by HRV14 (=cytopathic effect/CPE) or a toxic effect of the compound in mock-infected cells.

[5] = tested on: HXB II standard virus strain of HIV; test: HIV-1 replication in MT-2 cells scored by titration of supernatants (syncytia); format: cell-based
Description: (§1) The MT-2 cell line, which cells are retrovirus transformed, was used. Virus applied to the MT-2 cells was the HXB II standard virus strain of HIV, isolated early in the 1980's (HIV Research Community Standard Reference Gene Sequence Data Base No. 135829). […] The main characteristic of the HXBII virus strain was to induce syncytia (SI) in certain cells such as MT-2 cells. This permitted assessment of the production of HIV by light microscopy, and thus, by titration of supernatant, the amount of infectious virus. Virus replication was determined as follows. Antiviral activity was assessed at day four or five after infection by scoring p24 antigen production by a commercial kit (DuPont) and by titration of the supernatants. Each well of each concentration of compound was titrated in a fourfold assay. MT-2 cells (4×10^5 per well) were added to all titration steps. After incubation, 100 μl of supplemented RPMI 1640 was added. After 5 d, all wells were scored for SI formation by light microscopy. The highest dilution (titer) displaying at least one SI were scored as positive, and the highest titers were averaged. […] Both MT-2 cell and PBM cell supernatants were titered on MT-2 cells. Testing the antiviral potency of various compositions was accomplished as follows. EGCg and EC were from Sigma (St. Louis, Mo.). Stock solutions of 100 mM were prepared in ethanol and serially diluted with water between 10^−3 molar and 10^−9 molar. […] Each experiment was in a fourfold assay.

[6] = tested on: Herpes simplex virus 1; format: cell-based; conditions: HeLa cells
[7] = tested on: HIV-1 strain 952; test: HIV-1 strain 952 infection of peripheral blood monocytes (p24 ELISA and syncytia titer on MT-2 cells); format: cell-based
Description: FIG. 4: ELISA of supernatant p24 antigen of HIV-1 strain 952 (solid line; solid symbols) and HIV-1 titer based on number of syncytia observed by light microscopy on day 5 by titration of the day 4 supernatants in previously uninfected MT-2 cells (dashed line; open symbols) as a measure of mature virus production after 4 d with HIV strain 952 (City Laboratory, Hamburg) and mononuclear cells in peripheral blood (PBMCs)=peripheral blood monocytes prepared from healthy volunteers, as described herein below. Assays were in triplicate ±standard deviations.
As non-permanent cells, PBM cells were derived from freshly prepared pooled buffy coats from healthy blood donors. The PBM cells were isolated by Ficoll density gradient centrifugation and cultivated (stimulated with phytohemagglutinin) for 48 h in RPMI 1640 medium supplemented with 20% FBS and L-glutamine. PBMC tropic laboratory isolate No. 9.5 was used in the PBMC assays.
Virus replication was determined as follows. Antiviral activity was assessed at day four or five after infection by scoring p24 antigen production by a commercial kit (DuPont) and by titration of the supernatants. […] After 5 d, all wells were scored for SI formation by light microscopy. The highest dilution (titer) displaying at least one SI were scored as positive, and the highest titers were averaged. […]

[8] = tested on: TMEV/GDVII virus, TMEV/Bean virus; format: cell-based, Theiler's murine encephalomyelitis virus; conditions: RAW macrophages
[9] = tested on: human peripheral blood lymphocytes; test: Viability of human peripheral blood lymphocytes; format: cell-based; conditions: data not shown
[10] = tested on: HIV; test: Infectivity of HIV in MT-2 cells or PBMCs at different control virus titers; format: cell-based
[11] = tested on: HXB II standard virus strain of HIV; test: HIV-1 replication in MT-2 cells scored by p24 antigen production; format: cell-based
Description: as §1

[12] = tested on: human rhinovirus HRV 14; test: HRV-HeLa test system: cytopathic effect of human rhinovirus in HeLa cells; format: cell-based; conditions: HRV 14, HeLa, XTT test 72 h post infection; read-out: EC50 inhibition of CPE
[13] = tested on: mock-infected HeLa cells; test: Toxicity (cell viability) in mock-infected HeLa cells, XTT test; format: cell-based, human; conditions: at EC50 concentrations (0.1 μM and below)
Protocol: Inhibition by CapsiVirol-T of the HRV cytopathic effect and effects on cell viability were tested using a HeLa strain which is less sensitive to tNOX inhibitors than certain other HeLa cells (Institute for Infectious Medicine, Berlin, Germany) (FIG. 17). In these studies, both CapsiVirol-T and EGCg, the principal green tea catechin, were tested. […] The test substance-containing medium was removed and the cells were infected with viruses at a multiplicity of infection of 0.1. For controls, virus infections were in the absence of the test substance. Mock infections were in the presence and absence of the test substance. Cell viability was measured in the XTT test directly at the days post infection (d.p.i.) indicated (FIG. 17). […] The cytopathic effect induced by a virus was determined from a decrease of cell viability (=decrease of […] nm in comparison to the mock infected control in the absence of the test substance). Cell viability was monitored using the XTT test after 1, 2, and 3 days p.i. A control was at 1.5 h p.i. (in the figure 0 d p.i.) (FIG. 18). High OD values represent living cells, and low OD values represent cell damage. This damage is either induced by HRV14 (=cytopathic effect/CPE) or a toxic effect of the compound in mock-infected cells.

[14] = tested on: HRV14; test: HRV14 cytopathic effect in human osteoblast (hFOB) cells; conditions: between 1 and 1000 nM
[15] = read-out: EC50 Cell Production I (Mar. 24, 2003), 73 h hrv-infected MCF-10A cells
[16] = read-out: EC50 inhibition of vNOX
[17] = read-out: EC50 Cell Production II (Apr. 01, 2003), 73 h hrv-infected MCF-10A cells

Q: Which “EC50 inhibition of vNOX, range in words” value [1] does the source give for `CC(=O)Nc1ccc(O)cc1` [Acetaminophen] here?
A: micromolar range

Q: What about the EC50 [1, 15] of the same molecule?
A: 1000 nM

Q: How did the “tNOX-like activities with a period length of 22 min” value [2] turn out when `COc1cc(CNC(=O)CCCC/C=C/C(C)C)ccc1O` [Capsaicin] was run?
A: inhibited

Q: What about the EC50 ([1]; read-out: EC50 Cell Production IV (May 01, 2003), 72 h HRV-infected MCF-10A cells) of the same molecule?
A: 1 nM

Q: For `Oc1cc(O)c2c(c1)O[C@H](c1ccc(O)c(O)c1)[C@H](O)C2` [EC, (−)-epicatechin], which “toxicity by MTT utilization” value [3] is on record?
A: no toxicity

Q: With `O=C(O[C@@H]1Cc2c(O)cc(O)cc2O[C@@H]1c1cc(O)c(O)c(O)c1)c1cc(O)c(O)c(O)c1` [EGCg, (−)-epigallocatechin-3-gallate] as the molecule, how does the “fold higher concentration compared to CapsiVirol-T required to achieve inhibition” value [4] read?
A: ≥ 10 fold

Q: What about the EC50 ([4]; day 1) of the same molecule?
A: < 100 nM

Q: And the EC50 ([4]; day 2)?
A: 100 nM

Q: And the reduction of titers ([5]; 1 nM)?
A: no reduction

Q: What about the “titrated virus, % of the virus control or EC control” value ([5]; 10^−5 M) of the same molecule?
A: 20%

Q: What about the reduction of titers ([5]; 10^−6 and 10^−7 M) of the same molecule?
A: approximately 50%

Q: And the reduction of titers ([5]; 10^−8 M)?
A: 40%

Q: What about the infection [6] of the same molecule?
A: prevented

Q: What about the “infection (production of infective particles based on p24 assay)” value ([7]; 10 μM, PBMC, strain 952) of the same molecule?
A: prevented

Q: What about the EC50 ([7]; PBMC supernatants, read-out: EC50 for inhibition of production of infective virus (syncytia formation after 5 days on MT-2 cells)) of the same molecule?
A: < 1000 nM

Q: And the infection [8]?
A: prevented

Q: And the “reduction of MTT utilization” value ([3]; 10^−4 M)?
A: 90%

Q: What about the “cytotoxic effects by MTT utilization” value ([3]; dilutions of less than 10^−5 M) of the same molecule?
A: no cytotoxic effects

Q: And the effect on viability [9]?
A: without effect

Q: What about the “infectivity (syncytia reassay)” value ([10]; 1 μM) of the same molecule?
A: almost entirely prevented

Q: And the EC50 ([10]; control virus production of 14,000 infective particles/ml, read-out: EC50 reducing infectivity of HIV)?
A: ~1000 nM

Q: What about the EC50 ([10]; control virus production of 40,000 infective particles/ml, read-out: EC50 reducing infectivity of HIV) of the same molecule?
A: ~10000 nM

Q: And the EC50 ([10]; read-out: EC50 for prevention of infection (day 4 supernatants reassayed on MT-2 cells, syncytia after 5 days))?
A: ~100 nM

Q: What about the “effect on p24 production” value ([11]; 1 nM) of the same molecule?
A: no effect

Q: And the “inhibition of virus production (p24) as compared to the virus control” value ([11]; 10^−4 M, 4 or 5 d)?
A: 93%

Q: And the “inhibition of virus replication (p24)” value ([11]; 10^−5 M, 4 or 5 d)?
A: 45%

Q: And the “inhibitory effect (p24)” value ([11]; 10^−6 and 10^−7 M)?
A: approximately 20%

Q: And the EC50 [1, 16]?
A: 10 nM

Q: And the EC50 [12]?
A: ~1000 nM

Q: What about the toxicity [13] of the same molecule?
A: not toxic

Q: What does the source list for `CC(C)Cc1ccc(C(C)C(=O)O)cc1` (stereo not shown) [Ibuprofen]?
A: EC50 inhibition of vNOX, range in words [1]: micromolar range; EC50 [1, 15]: 1000 nM; EC50 [1, 16]: ~10000 nM

Q: For `COc1ccc2cc([C@H](C)C(=O)O)ccc2c1` [Naproxen], which “EC50 inhibition of vNOX, range in words” value [1] is on record?
A: micromolar range

Q: And the EC50 [1, 15]?
A: 5000 nM

Q: And the EC50 [1, 17]?
A: 2000 nM

Q: What about the EC50 [1, 16] of the same molecule?
A: ~10000 nM

Q: With `COc1cc(CN)ccc1O` [Vanillylamine] as the molecule, how does the EC50 [1, 16] read?
A: 0.1 nM

Q: For `[Cl-].[Cl-].[Zn+2]` [ZnCl2, zinc chloride], which “reduction of the cytopathic effect” value ([14]; virus dilution of 1:20) is on record?
A: 71±9%

Q: And the “reduction of the cytopathic effect” value ([14]; virus dilution of 1:50)?
A: 50%±14%

Q: What about the EC50 [1, 15] of the same molecule?
A: 10 nM

Q: And the EC50 [1, 17]?
A: 10 nM

Q: What about the EC50 [1, 16] of the same molecule?
A: ~10 nM and 10 nM
